The source of these data is ChEMBL document CHEMBL3045290, “Novel salicylamide derivatives incorporating neonicotinoid pharmacophore: design, synthesis, characterization, and biological evaluation” (2013).

Common to all, as to type: functional
Assay [1] deals with Helicoverpa armigera. Kind of assay: Insecticidal activity against Helicoverpa armigera fed on artificial diet containing compound assessed as mortality at 125 ug/ml after 96 hr.
Assay [2] has as its system Plutella xylostella. The assay is described as follows: Insecticidal activity against Plutella xylostella (diamondback moth) fed on artificial diet containing compound assessed as mortality at 62.5 ug/ml after 96 hr.
The subject of assay [3] is Helicoverpa armigera. The assay is described as follows: Insecticidal activity against Helicoverpa armigera fed on artificial diet containing compound assessed as mortality at 62.5 ug/ml after 96 hr.
Assay [4] relates to Plutella xylostella. Kind of assay: Insecticidal activity against Plutella xylostella (diamondback moth) fed on artificial diet containing compound assessed as mortality at 500 ug/ml after 96 hr.
Assay [5] relates to Helicoverpa armigera. The assay is described as follows: Insecticidal activity against Helicoverpa armigera fed on artificial diet containing compound assessed as mortality at 500 ug/ml after 96 hr.
Assay [6] deals with Helicoverpa armigera. The assay is described as follows: Insecticidal activity against Helicoverpa armigera fed on artificial diet containing compound assessed as mortality at 1000 ug/ml after 96 hr.
Assay [7] concerns Plutella xylostella. Kind of assay: Insecticidal activity against Plutella xylostella (diamondback moth) fed on artificial diet containing compound assessed as mortality at 250 ug/ml after 96 hr.
Assay [8] relates to Plutella xylostella. The assay is described as follows: Insecticidal activity against Plutella xylostella (diamondback moth) fed on artificial diet containing compound assessed as mortality at 31.25 ug/ml after 96 hr.
Assay [9] concerns Plutella xylostella. The assay is described as follows: Insecticidal activity against Plutella xylostella (diamondback moth) fed on artificial diet containing compound assessed as mortality at 125 ug/ml after 96 hr.
The test system of assay [10] is Plutella xylostella. Kind of assay: Insecticidal activity against Plutella xylostella (diamondback moth) fed on artificial diet containing compound assessed as mortality at 1000 ug/ml after 96 hr.
The test system of assay [11] is Helicoverpa armigera. The assay is described as follows: Insecticidal activity against Helicoverpa armigera fed on artificial diet containing compound assessed as mortality at 250 ug/ml after 96 hr.
In assay [12] the test system is Helicoverpa armigera. The assay is described as follows: Insecticidal activity against Helicoverpa armigera fed on artificial diet containing compound assessed as mortality at 31.25 ug/ml after 96 hr.

The term mortality denotes the share of the test organisms that died. `O=C(Nc1ccc(C(F)(F)F)cc1)c1ccccc1OCc1ccc(Cl)nc1`: the mortality at 125 µg/mL with Helicoverpa armigera [1] and in the assay with Plutella xylostella [9] was 100% each time. Further, the mortality at 62.5 µg/mL in the assay on Plutella xylostella [2] and in the assay on Helicoverpa armigera [3] was 100% throughout. Moreover, the mortality at 500 µg/mL in the assay on Plutella xylostella [4] and in the assay with Helicoverpa armigera [5] was 100% each time. Besides, the mortality at 1000 µg/mL in the assay with Helicoverpa armigera [6] and in the assay on Plutella xylostella [10] was 100% each time. Also, the mortality at 250 µg/mL in the assay on Plutella xylostella [7] and in the assay on Helicoverpa armigera [11] was 100% throughout. Also, the mortality at 31.25 µg/mL in the assay on Plutella xylostella [8] is 81%; with Helicoverpa armigera [12], 61%.

`CC(C)NC(=O)c1ccccc1OCc1ccc(Cl)nc1`: the mortality at 125 µg/mL in the assay on Helicoverpa armigera [1] was 0%; with Plutella xylostella [9] it was 41%. Besides, the mortality at 62.5 µg/mL with Plutella xylostella [2] and with Helicoverpa armigera [3] was 0% in each case. Besides, the mortality at 500 µg/mL amounted to 100% with Plutella xylostella [4] and 41% in the assay with Helicoverpa armigera [5]. Besides, the results for the mortality at 1000 µg/mL with Helicoverpa armigera [6] and in the assay with Plutella xylostella [10] were 41% and 100%, respectively. The figures for the mortality at 250 µg/mL in the assay with Plutella xylostella [7] and in the assay with Helicoverpa armigera [11] were 100% and 0%, respectively. In addition, the mortality at 31.25 µg/mL in the assay with Plutella xylostella [8] and with Helicoverpa armigera [12] was 0% throughout.

For the compound `O=C(c1ccccc1OCc1ccc(Cl)nc1)N1CCCCC1`, the mortality at 125 µg/mL with Helicoverpa armigera [1] and in the assay on Plutella xylostella [9] was 0% in each case. In addition, the mortality at 62.5 µg/mL with Plutella xylostella [2] and in the assay with Helicoverpa armigera [3] was 0% throughout. The values for the mortality at 500 µg/mL with Plutella xylostella [4] and in the assay with Helicoverpa armigera [5] were 41% and 0%, respectively. Also, the mortality at 1000 µg/mL in the assay with Helicoverpa armigera [6] and in the assay on Plutella xylostella [10] was 41% each time. In addition, the mortality at 250 µg/mL in the assay with Plutella xylostella [7] and in the assay on Helicoverpa armigera [11] was 0% in each case. Besides, the mortality at 31.25 µg/mL with Plutella xylostella [8] and in the assay with Helicoverpa armigera [12] was 0% throughout.

For `O=C(Nc1ccccc1)c1ccccc1OCc1ccc(Cl)nc1`, the mortality at 125 µg/mL came out at 0% with Helicoverpa armigera [1] and 41% in the assay with Plutella xylostella [9]. The mortality at 62.5 µg/mL in the assay on Plutella xylostella [2] and in the assay with Helicoverpa armigera [3] was 0% throughout. Moreover, the mortality at 500 µg/mL in the assay on Plutella xylostella [4] came out at 81%; in the assay with Helicoverpa armigera [5] it was 0%. For the same compound, the mortality at 1000 µg/mL was found to be 0% in the assay on Helicoverpa armigera [6] and 81% in the assay with Plutella xylostella [10]. Further, the mortality at 250 µg/mL stood at 41% in the assay with Plutella xylostella [7] and 0% in the assay on Helicoverpa armigera [11]. Besides, the mortality at 31.25 µg/mL with Plutella xylostella [8] and with Helicoverpa armigera [12] was 0% throughout.

Turning to `O=C(Nc1ccc(F)cc1)c1ccccc1OCc1ccc(Cl)nc1`, the mortality at 125 µg/mL with Helicoverpa armigera [1] and with Plutella xylostella [9] was 41% in each case. Further, the mortality at 62.5 µg/mL with Plutella xylostella [2] and in the assay with Helicoverpa armigera [3] was 0% throughout. Besides, the mortality at 500 µg/mL was 81% in the assay with Plutella xylostella [4] and 41% in the assay on Helicoverpa armigera [5]. Besides, the mortality at 1000 µg/mL in the assay with Helicoverpa armigera [6] came out at 41%; in the assay with Plutella xylostella [10] it was 100%. Besides, the mortality at 250 µg/mL with Plutella xylostella [7] and with Helicoverpa armigera [11] was 41% in each case. Also, the mortality at 31.25 µg/mL in the assay on Plutella xylostella [8] and with Helicoverpa armigera [12] was 0% throughout.

With `O=C(Nc1ccc(Br)cc1)c1ccccc1OCc1ccc(Cl)nc1`, the results for the mortality at 125 µg/mL with Helicoverpa armigera [1] and with Plutella xylostella [9] were 81% and 100%, respectively. Also, the mortality at 62.5 µg/mL in the assay on Plutella xylostella [2] stood at 100%; in the assay on Helicoverpa armigera [3], 61%. For the same compound, the mortality at 500 µg/mL in the assay with Plutella xylostella [4] and in the assay with Helicoverpa armigera [5] was 100% each time. In addition, the mortality at 1000 µg/mL with Helicoverpa armigera [6] and in the assay on Plutella xylostella [10] was 100% in each case. Further, the mortality at 250 µg/mL in the assay with Plutella xylostella [7] was determined as 100%; with Helicoverpa armigera [11], 81%. The mortality at 31.25 µg/mL worked out at 41% with Plutella xylostella [8] and 61% with Helicoverpa armigera [12].

On to `Cc1ccccc1NC(=O)c1ccccc1OCc1ccc(Cl)nc1`, for which the mortality at 125 µg/mL in the assay on Helicoverpa armigera [1] and in the assay on Plutella xylostella [9] was 0% each time. Further, the mortality at 62.5 µg/mL with Plutella xylostella [2] and in the assay on Helicoverpa armigera [3] was 0% in each case. Further, the mortality at 500 µg/mL in the assay on Plutella xylostella [4] and in the assay on Helicoverpa armigera [5] was 0% throughout. The mortality at 1000 µg/mL in the assay on Helicoverpa armigera [6] and in the assay on Plutella xylostella [10] was 0% each time. Also, the mortality at 250 µg/mL in the assay on Plutella xylostella [7] and in the assay with Helicoverpa armigera [11] was 0% throughout. For the same compound, the mortality at 31.25 µg/mL in the assay with Plutella xylostella [8] and with Helicoverpa armigera [12] was 0% each time.
